According to ChEMBL document CHEMBL5214908, “Small Scorpion-like Peptidomimetics: Potential Broad-Spectrum Membrane Active Antimicrobials without Detectable Resistance” (J Med Chem, 2021):
In brackets after ≈: the same amount, converted by molar mass.

Legend:
[1] = tested on: Staphylococcus aureus; experiment: Antibacterial activity against methicillin-resistant Staphylococcus aureus assessed as reduction in bacterial growth; assay type: functional
[2] = Hemolytic activity in human RBC; assay type: toxicity, cell-based, Erythrocyte; details: human red blood cells (erythrocytes)
[3] = tested on: Staphylococcus epidermidis; experiment: Antibacterial activity against methicillin-resistant Staphylococcus epidermidis assessed as reduction in bacterial growth; assay type: functional
[4] = tested on: Enterococcus faecium; experiment: Antibacterial activity against vancomycin-resistant Enterococcus faecium assessed as reduction in bacterial growth; assay type: functional
[5] = tested on: Escherichia coli; experiment: Antibacterial activity against Escherichia coli assessed as reduction in bacterial growth; assay type: functional
[6] = tested on: Klebsiella pneumoniae; experiment: Antibacterial activity against Klebsiella pneumoniae assessed as reduction in bacterial growth; assay type: functional
[7] = tested on: Pseudomonas aeruginosa; experiment: Antibacterial activity against Pseudomonas aeruginosa assessed as reduction in bacterial growth; assay type: functional
[8] = tested on: Staphylococcus aureus; experiment: In vivo antibacterial activity against methicillin-resistant Staphylococcus aureus infected in murine assessed as log reduction in bacterial burden; assay type: functional; set-up: scale not given: the % may be the effect or the level left

Compound | MIC [1] [µg/mL] | HC50 [2] [µg/mL] | MIC [3] [µg/mL] | MIC [4] [µg/mL] | MIC [5] [µg/mL] | MIC [6] [µg/mL] | MIC [7] [µg/mL] | Activity [8] [%]
CCCCCCCCCNC(=O)[C@H](CCCCN)NC(=O)c1ccc(C(=O)N[C@@H](CCCCN)C(=O)NCCCCCCCCC)cc1 | 0.75 (≈ 1.11 µM) | 180 | – | – | – | – | – | –
NCCCC[C@H](N)CN(CC(=O)Nc1cc(NC(=O)CN(C[C@@H](N)CCCCN)C(=O)CC23CC4CC(CC(C4)C2)C3)cc(C(=O)NCCNC(=O)CC23CC4CC(CC(C4)C2)C3)c1)C(=O)CC12CC3CC(CC(C3)C1)C2 | 2 (≈ 1.88 µM) | 250 | 2 (≈ 1.88 µM) | 2 (≈ 1.88 µM) | 2 (≈ 1.88 µM) | 2 (≈ 1.88 µM) | 2 (≈ 1.88 µM) | 99.998
